{
  "source": "patent US20180296523A1",
  "about": "“USE OF POLYMETHOXYLATED FLAVONES TO AMELIORATE CIRCADIAN RHYTHM DISORDERS” (THE BOARD OF REGENTS OF THE UNIVERSITY OF TEXAS SY, priority 2017, published 2018)",
  "key": {"[1]": {"test_system": "HFD-fed WT and Clock^Δ19/Δ19 C57BL/6J mice", "assay": "Diet-induced obese (DIO) mouse model, HFD-fed WT and Clock^Δ19/Δ19 mice", "format": "in vivo", "conditions": "for body weight gain: 10-week treatment", "description": "For diet-induced obesity, male mice at 6 weeks of age were fed with HFD (D12492, Research Diets) until the end of the experimental protocol. The mice were treated with either vehicle (DMSO) or NOB (200 mg/kg body weight) via oral gavage every other day, in the time window of ZT8-10, throughout the experimental period. An every-other-day dosing regimen was chosen at the indicated level based on several reasons. First, previous in vivo studies have used similar overall amounts for mouse treatment (100-125 mg/kg/day) (Lee et al., 2013; Li et al., 2006). The oral gavage procedure was done in late afternoon (ZT8-10) prior to the start of their active phase, reasoning that this may coincide with the time-window adopted by previous studies. Second, daily dosing was not chosen to avoid entraining the experimental mice with the procedure per se as an artificial zeitgeber. Furthermore, pilot pharmacokinetic (PK) assays were done under a single-dose condition (Fig. S7). […] Therefore, it was reasoned that every-other day dosing helps avoid any incomplete daily clearance over the chronic experimental period (10 weeks). Weekly body weight was monitored in different treatment mice for 10 weeks. Body mass composition was measured at the end of experiments using a […] spectrometer (Bruker Optics, Texas) (Garcia et al., 2013). A control group of mice were fed with regular chow diet (Purina 5001) in parallel with the two treatment groups in HFD. For db/db and db/db Clock^[…]/[…] mice, male mice at 6-8 weeks of age were group-housed (2-3/cage) and maintained on regular chow diets. Mice were subjected to oral gavage with either DMSO or NOB as described above. Energy expenditure was examined by measuring oxygen consumption with indirect calorimetry as described (Chutkow et al., 2010; Daniels et al., 2010). After 8 weeks of treatments described above, mice from each group were placed at room temperature (22° C.-24° C.) in the chambers of a Comprehensive Lab Animal Monitoring System (CLAMS, Columbus Instruments, Columbus, Ohio). After mice adapted to the metabolic chamber, volume of O2 consumption and CO2 production was continuously recorded over a 24-hr period. Average O2 consumption was calculated and compared between different treatments. Food and water were provided ad libitum. To measure food intake, food pellets were weighted every three hours over a 24-hr period in mice treated as above. The daily food intake was calculated from averaged food intake of 3 independent experiments. Serum samples were obtained at ZT2 from treated mice as previously described (Jeong et al., 2015). Hepatic triglyceride and cholesterol were extracted as previously described (Liu et al., 2012). The triglyceride and cholesterol levels in liver and serum were assessed by Serum Triglyceride Determination Kit (Sigma) and Cholesterol Assay Kit (Cayman), respectively. The assay plates were read by a TECAN M200 instrument (Tecan) following the manufacturer's instructions. Glucose tolerance test (GTT) and insulin tolerance test (ITT) were performed largely as described (He et al., 2015; Jeong et al., 2015). Briefly, after overnight and 5-hr fasting, GTT and ITT were conducted at ZT2 and ZT8 respectively. Glucose levels were measured from tail blood before and 15, 30, 60, or 120 min after injection of either 1 g/kg glucose or 0.75 U/kg insulin (Sigma) at ZT2 and ZT8 respectively by using the ONETOUCH UltraMini blood glucose monitoring system (LifeScan). Serum insulin levels were measured with the Rat/Mouse Insulin Elisa kit (Millipore) according to the manufacturer's instructions. The plasma samples were collected at ZT2 as described above for lipid assays. For microscopic analysis of lipid accumulation in liver, tissue samples were collected and immediately embedded in Tissue-Tek OCT cryostat molds (Leica) and then frozen at -80° C. Tissue sections were stained in 0.5% Oil Red O and counterstained with Mayer's hematoxylin for 1 min. […]"}, "[2]": {"molecular_target": "T1, RORα-LBD (Homo sapiens, UniProt P35398)", "T1 sequence (P35398 272-510 limits assumed)": "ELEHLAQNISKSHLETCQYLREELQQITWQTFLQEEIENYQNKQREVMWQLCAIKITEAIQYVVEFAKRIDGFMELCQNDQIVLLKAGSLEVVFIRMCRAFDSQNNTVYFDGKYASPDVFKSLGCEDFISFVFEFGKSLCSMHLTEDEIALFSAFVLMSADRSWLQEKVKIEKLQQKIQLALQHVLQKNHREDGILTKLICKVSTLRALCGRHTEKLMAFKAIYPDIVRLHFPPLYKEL", "assay": "Radioligand receptor binding assay with 25-[3H]-OHC, RORα-LBD", "conditions": "in the presence of 4.5 nM 25-[3H]-OHC", "description": "Ligand binding was determined by filter binding assays to calculate the Kd value. […] Ki was determined using the Cheng-Prusoff equation."}, "[3]": {"conditions": "HFD-fed WT mice, serum and liver"}},
  "note": "Entries after “also recorded” stand apart in the source; their conditions may differ.",
  "data": [
    {"smiles": "C[C@@H]1O[C@@H](O[C@H]2[C@H](Oc3cc(O)c4c(c3)O[C@H](c3ccc(O)cc3)CC4=O)O[C@H](CO)[C@@H](O)[C@@H]2O)[C@H](O)[C@H](O)[C@H]1O", "note": "[naringin, reference compound]", "values": [
      {"measurement": "difference of treatment effects between WT and Clock^Δ19/Δ19 mice", "setting": "[1]; HFD-fed C57BL/6J mice", "result": "largely indistinguishable"},
      {"measurement": "blood insulin levels", "setting": "[1]; HFD-fed Clock^Δ19/Δ19 mice", "result": "decreased to similar extents"},
      {"measurement": "glucose tolerance (GTT)", "setting": "[1]; HFD-fed Clock^Δ19/Δ19 mice", "result": "modest effects on glucose tolerance"},
      {"measurement": "insulin sensitivity (ITT)", "setting": "[1]; HFD-fed Clock^Δ19/Δ19 mice", "result": "modest effects on insulin sensitivity"},
      {"measurement": "fasting blood glucose levels", "setting": "[1]; HFD-fed Clock^Δ19/Δ19 mice, daytime and nighttime", "result": "failed to reduce fasting blood glucose levels"},
      {"measurement": "fasting glucose levels", "setting": "[1]; HFD-fed WT mice", "result": "reduced fasting blood glucose levels"},
      {"measurement": "glucose tolerance (GTT)", "setting": "[1]; HFD-fed WT mice", "result": "modest effects on glucose tolerance"},
      {"measurement": "insulin sensitivity (ITT)", "setting": "[1]; HFD-fed WT mice", "result": "modest effects on insulin sensitivity"},
      {"measurement": "blood insulin levels", "setting": "[1]; HFD-fed WT mice, vs vehicle", "result": "decreased to similar extents"},
      {"measurement": "effects on body weight gain and lipid and glucose homeostasis", "setting": "[1]; HFD-fed mice, compared with nobiletin", "result": "significantly attenuated effects"},
      {"measurement": "competitive binding to RORα-LBD", "setting": "[2]", "result": "markedly diminished binding"}
    ]},
    {"smiles": "COc1ccc(-c2cc(=O)c3c(OC)c(OC)c(OC)c(OC)c3o2)cc1OC", "note": "[nobiletin]", "values": [
      {"measurement": "lipid droplet formation in liver", "setting": "[1]; DIO WT liver", "result": "essentially abolished lipid droplet formation"},
      {"measurement": "liver steatosis (H&E and Oil Red O staining)", "setting": "[1]; DIO WT liver", "result": "strongly improved liver steatosis"},
      {"measurement": "adipocyte cell size", "setting": "[1]; HFD-fed Clock^Δ19/Δ19 mice", "result": "essentially unchanged"},
      {"measurement": "energy expenditure", "setting": "[1]; HFD-fed Clock^Δ19/Δ19 mice", "result": "no increase"},
      {"measurement": "fat mass", "setting": "[1]; HFD-fed Clock^Δ19/Δ19 mice", "result": "essentially unchanged"},
      {"measurement": "food intake", "setting": "[1]; HFD-fed Clock^Δ19/Δ19 mice", "result": "did not change food intake"},
      {"measurement": "glucose and lipid homeostasis", "setting": "[1]; HFD-fed Clock^Δ19/Δ19 mice", "result": "did not significantly improve"},
      {"measurement": "respiratory quotient", "setting": "[1]; HFD-fed Clock^Δ19/Δ19 mice", "result": "no increase"},
      {"measurement": "body weight gain", "setting": "[1]; HFD-fed Clock^Δ19/Δ19 mice", "result": "very modest reduction in body weight gain"},
      {"measurement": "beneficial effect on liver steatosis", "setting": "[1]; HFD-fed Clock^Δ19/Δ19 mice, compared with WT mice", "result": "markedly attenuated"},
      {"measurement": "fasting glucose levels", "setting": "[1]; HFD-fed WT mice", "result": "lowered fasting glucose levels"},
      {"measurement": "fat mass (body mass composition)", "setting": "[1]; HFD-fed WT mice", "result": "reduction in fat mass"},
      {"measurement": "glucose tolerance (GTT)", "setting": "[1]; HFD-fed WT mice", "result": "significantly improved"},
      {"measurement": "insulin sensitivity (ITT)", "setting": "[1]; HFD-fed WT mice", "result": "significantly improved"},
      {"measurement": "respiratory quotient", "setting": "[1]; HFD-fed WT mice", "result": "increased"},
      {"measurement": "white adipose cell size", "setting": "[1]; HFD-fed WT mice", "result": "reduction"},
      {"measurement": "body weight gain", "setting": "[1]; HFD-fed WT mice, 200 mg/kg oral every other day, vs vehicle", "result": "significantly attenuated body weight gain"},
      {"measurement": "total cholesterol (TC) levels", "setting": "[1]; [3]", "result": "significantly diminished"},
      {"measurement": "total triglyceride (TG) levels", "setting": "[1]; [3]", "result": "significantly diminished"},
      {"measurement": "oxygen consumption (energy expenditure)", "setting": "[1]; HFD-fed WT mice, throughout the circadian cycle", "result": "greatly elevated oxygen consumption"},
      {"measurement": "blood insulin levels", "setting": "[1]; HFD-fed WT mice, vs vehicle", "result": "strongly reduced"},
      {"measurement": "food intake", "setting": "[1]; HFD-fed WT mice, vs vehicle", "result": "not significantly altered"},
      {"measurement": "white adipose cell size", "setting": "[1]; HFD-fed WT mice, listed as NOB", "result": "reduced visceral WAT cell size"},
      {"measurement": "competitive binding to RORα-LBD", "setting": "[2]", "result": "direct binding; also recorded: robust competitive binding"}
    ]}
  ]
}
